In data set [1] the test system is Intracellular L. mexicana amastigotes. As to the kind of experiment: microbe, parasite or virus in culture. Particulars: bone marrow derived macrophages, Giemsa staining, 72-hour incubation. Format: cell-based, Leishmania mexicana. Here is the method:
Bone marrow derived macrophages (BMDMs) were isolated from BALB/c mice and cultured as previously described. […] Completely differentiated BMDMs are obtained after 7 days of culture with media change every 2 days. Harvested cells are seeded onto 10 mm glass cover slips at 5 x 10^5 cells/ well of a 24 well plate in DMEM media (without LCM) and allowed to adhere overnight. BMDM cells are then infected overnight with LV82 L. donovani or L. mexicana (NR-51210) at a multiplicity of infection of 10. After infection, cells were washed three times with fresh media to remove extracellular promastigotes and treated with compounds for a 72-hour incubation. BMDM cells were then washed with phosphate buffered saline, fixed with ice-cold methanol, and stained with Giemsa (5% v/v in water). The cover slips with stained cells are mounted onto glass slides and imaged on EVOS XL (100X, Thermo Fisher Scientific). Leishmania amastigotes per 100 macrophages were determined in a blinded manner.

In data set [2] the test system is Extracellular L. mexicana promastigotes. As to the kind of experiment: Resazurin viability assay of extracellular L. mexicana promastigotes. The format is cell-based, Leishmania mexicana. Here is the method: The effect of compounds on extracellular promastigotes was evaluated using a resazurin-based assay as described previously. In short, late log phase Leishmania promastigotes were seeded in a 96 well plate at 1 x 10^5 parasites per well and treated with drugs (0.5 – 200 µM) for 72 hours at 25°C. Ten microliters of Resazurin (0.02% w/v) were added to the treated parasites to achieve a final concentration of 0.002% w/v and incubated for 24 hours. Viability of the promastigotes was assessed by fluorescence (excitation 544 nm, emission 590 nm, SpectraMax M2, Molecular Devices).

Another data set has as its system THP-1 macrophages. Kind of data set: MTT viability of THP-1 macrophages (host cell cytotoxicity). Format: cell-based. Particulars: 72 hr incubation up to 300µM. Here is the method:
Human monocytes, THP-1 (ATCC, TIB002) were used as host cells for Leishmania infection and to assess drug cytotoxicity. The cells were cultured at 37C, 5% CO2 in RPMI medium (ATCC) supplemented with 10% FBS, 1% Penicillin/Streptomycin and 0.05 mM of β-mercaptoethanol. Cells were used in experiments up to passage 10.
Effect of the compounds on THP-1 cell viability measured using thiazolyl blue tetrazolium bromide which measures cell metabolic activity (MTT). […] Macrophages were then treated with compounds resuspended in RPMI media (1–50 µM) for 24 hours. Media was replaced with thiazolyl blue tetrazolium bromide solubilized in RPMI media (0.5 mg/mL) and incubated at 37°C for 2 hours. The reduced formazan crystals were solubilized with isopropyl alcohol and the absorbance of the resulting solution was measured at 560 nm with a background subtraction at 670 nm. […] This process was repeated with a 72-hr incubation and extended concentration range (1–300 µM) for select compounds.

Another data set has as its target T1, lysozyme (Homo sapiens, UniProt P61626).
T1 sequence (P61626 19-148): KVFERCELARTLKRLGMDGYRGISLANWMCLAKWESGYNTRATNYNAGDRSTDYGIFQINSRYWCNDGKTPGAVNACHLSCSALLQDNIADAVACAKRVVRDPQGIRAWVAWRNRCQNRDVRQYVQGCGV
Kind of data set: Thermal proteome profiling (TPP) in Leishmania infected macrophage lysate. The format is binding. Also noted: endogenous in cells; host or cells: PMA-differentiated THP-1 macrophages infected with L. mexicana (lysate). The note with it: 100 µM 197 in L. mexicana infected THP-1 lysate. The method, then:
To generate cell lysate, ten million THP-1 cells were plated overnight in a 10 cm dish, then differentiated with 150 nM phorbol 12-myristate 13-acetate (PMA) for 72 hours. The resulting macrophages were infected with L. mexicana promastigotes at a multiplicity of infection of 10 and incubated for 18 hours. After infection, cells were washed three times with PBS to remove extracellular promastigotes. Cells were then collected by scraping and pelleted with centrifugation. The cell pellet was resuspended in phosphate buffered saline and subjected to five freeze-thaw cycles. Samples were centrifuged 14,000g x 10 minutes to remove cellular debris. Protein concentration of supernatant was determined by BCA assay and cell lysate was stored at -80 ° C until further use.
The cell lysate was divided into two portions. One portion was spiked with 197 in DMSO to generate the ‘with ligand’ sample; and the other portion was spiked with DMSO to generate the ‘without ligand’ sample. The final concentration of 197 in the ‘with ligand’ sample was 100 µM, and both the without and with ligand samples contained 1% DMSO. The with and without samples were each subjected five replicate one-pot TPP analyses like that previously described. […]

Some results are limits rather than exact numbers.

For orientation: IC50 means the concentration that gives 50% inhibition. Read a high IC50 as lower potency. The term MIC50 denotes the lowest concentration that inhibits either 50% of growth or 50% of the strains tested, depending on the study. Read a low MIC50 as higher susceptibility.

On to `O=C(CNCc1cccc(F)c1)Nc1ccc(-n2cc(C(F)(F)F)nc2-c2ccc(-c3ccc(C(F)(F)F)cc3)cc2)cc1` [Compound 197], for which the IC50 in data set [1] (Leishmania mexicana, Macrophage, 72 h) was less than 2 µM; in data set [1] it was 1.7 µM. The “effect on L. mexicana extracellular promastigote viability” value in data set [2] is given as “no effect”. Further, the MIC50 in data set [2] (Leishmania mexicana, 72-hour incubation) was more than 200 µM. Further, the “reduction in macrophage viability” value with THP-1 macrophages is reported as “Neither compound had any reduction”. Also, the “TPP z-score for lysozyme” value on lysozyme worked out at 4.32.

(Values after article PMC13379085 (PLOS Neglected Tropical Diseases, 2026).)
